Assay results taken from the supplement of paper PMC10307832.

Columns and labels:
Assay in all cases: relative viability (nuclei count vs DMSO), 5 days (fraction); higher = more cells survive
HARA = system: HARA
Procedure, shortened: (§1)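 Relative viability divides the nuclei count in treated wells by that in vehicle wells. Lung cancer cell lines were seeded in 1536-well plates, dosed by pin tool the next day, and fixed and stained after 5 days in one step with final 0.05% Triton X-100, 1% formaldehyde and 1 ug/ml Hoechst. Dosing was a single drug or a fixed anchor-drug dose plus five library-drug doses (not always all listed) in √10 steps, and values are medians of duplicate plates imaged at 4×.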

HCC-827 = system: HCC-827
Procedure, shortened: as §1

PC-3 [JPC-3] = system: PC-3 [JPC-3]
Procedure, shortened: as §1

HCC-44 = system: HCC-44
Procedure, shortened: as §1

NCI-H2087 = system: NCI-H2087
Procedure, shortened: as §1

COR-L 105 = system: COR-L 105
Procedure, shortened: as §1

LCLC-97TM1 = system: LCLC-97TM1
Procedure, shortened: as §1

CAL-12T = system: CAL-12T
Procedure, shortened: as §1

LU99A = system: LU99A
Procedure, shortened: as §1

NCI-H1993 = system: NCI-H1993
Procedure, shortened: as §1

LXF-289 = system: LXF-289
Procedure, shortened: as §1

BEN = system: BEN
Procedure, shortened: as §1

NCI-H2126 = system: NCI-H2126
Procedure, shortened: as §1

HOP-62 = system: HOP-62
Procedure, shortened: as §1

NCI-H727 = system: NCI-H727
Procedure, shortened: as §1

HCC-366 = system: HCC-366
Procedure, shortened: as §1

LC-2-ad = system: LC-2-ad
Procedure, shortened: as §1

SK-MES-1 = system: SK-MES-1
Procedure, shortened: as §1

HCC-15 = system: HCC-15
Procedure, shortened: as §1

COR-L23 = system: COR-L23
Procedure, shortened: as §1

NCI-H2009 = system: NCI-H2009
Procedure, shortened: as §1

NCI-H2170 = system: NCI-H2170
Procedure, shortened: as §1

PC-14 = system: PC-14
Procedure, shortened: as §1

Work on Cc1cnc(-c2cnc(NCCNc3ccc(C#N)cn3)nc2-c2ccc(Cl)cc2Cl)[nH]1 + O=C(c1cc(Cc2n[nH]c(=O)c3ccccc23)ccc1F)N1CCN(C(=O)C2CC2)CC1 [Olaparib] (partner 8 µM) yielded a relative viability (HARA; first compound 0.08 µM) of 0.509, a relative viability (HARA; first compound 0.253 µM) of 0.72 and a relative viability (HARA; first compound 0.8 µM) of 0.764. The relative viability (HARA; first compound 2.53 µM) was 0.894, the relative viability (HCC-827; first compound 0.08 µM) was 0.582 and the relative viability (HCC-827; first compound 0.253 µM) was 0.514. The relative viability (HCC-827; first compound 0.8 µM) was 0.572, the relative viability (HCC-827; first compound 2.53 µM) was 0.561 and the relative viability (PC-3 [JPC-3]; first compound 0.08 µM) was 1.1. The relative viability (PC-3 [JPC-3]; first compound 0.253 µM) was 1.08, the relative viability (PC-3 [JPC-3]; first compound 0.8 µM) was 1.09 and the relative viability (PC-3 [JPC-3]; first compound 2.53 µM) was 1.04. It also gave a relative viability (HCC-44; first compound 0.08 µM) of 0.934, a relative viability (HCC-44; first compound 0.253 µM) of 0.946 and a relative viability (HCC-44; first compound 0.8 µM) of 1.04. The relative viability (HCC-44; first compound 2.53 µM) was 0.989, the relative viability (NCI-H2087; first compound 0.08 µM) was 0.671 and the relative viability (NCI-H2087; first compound 0.8 µM) was 0.635. For the same compound, the relative viability (NCI-H2087; first compound 2.53 µM) was 0.459, the relative viability (COR-L 105; first compound 0.08 µM) was 0.734 and the relative viability (COR-L 105; first compound 0.253 µM) was 0.711. The relative viability (COR-L 105; first compound 0.8 µM) was 0.642, the relative viability (COR-L 105; first compound 2.53 µM) was 0.691 and the relative viability (LCLC-97TM1; first compound 0.08 µM) was 0.379. For the same compound, the relative viability (LCLC-97TM1; first compound 0.253 µM) was 0.36, the relative viability (LCLC-97TM1; first compound 0.8 µM) was 0.417 and the relative viability (LCLC-97TM1; first compound 2.53 µM) was 0.316. It also gave a relative viability (CAL-12T; first compound 0.08 µM) of 0.686, a relative viability (CAL-12T; first compound 0.253 µM) of 0.698 and a relative viability (CAL-12T; first compound 0.8 µM) of 0.802. For the same compound, the relative viability (CAL-12T; first compound 2.53 µM) was 0.756, the relative viability (LU99A; first compound 0.08 µM) was 0.254 and the relative viability (LU99A; first compound 0.253 µM) was 0.256. For the same compound, the relative viability (LU99A; first compound 0.8 µM) was 0.231, the relative viability (LU99A; first compound 2.53 µM) was 0.253 and the relative viability (NCI-H1993; first compound 0.08 µM) was 1.1. The relative viability (NCI-H1993; first compound 0.253 µM) was 0.855, the relative viability (NCI-H1993; first compound 0.8 µM) was 1.13 and the relative viability (NCI-H1993; first compound 2.53 µM) was 1.2. It also gave a relative viability (LXF-289; first compound 0.08 µM) of 1.04, a relative viability (LXF-289; first compound 0.253 µM) of 1 and a relative viability (LXF-289; first compound 0.8 µM) of 1.11. The relative viability (LXF-289; first compound 2.53 µM) was 1.11, the relative viability (BEN; first compound 0.08 µM) was 1.17 and the relative viability (BEN; first compound 0.253 µM) was 1.04. It also gave a relative viability (BEN; first compound 0.8 µM) of 0.973, a relative viability (BEN; first compound 2.53 µM) of 0.978 and a relative viability (NCI-H2126; first compound 0.08 µM) of 0.922. The relative viability (NCI-H2126; first compound 0.253 µM) was 0.908, the relative viability (NCI-H2126; first compound 0.8 µM) was 0.89 and the relative viability (NCI-H2126; first compound 2.53 µM) was 0.898. It also gave a relative viability (HOP-62; first compound 0.08 µM) of 0.354, a relative viability (HOP-62; first compound 0.253 µM) of 0.362 and a relative viability (HOP-62; first compound 0.8 µM) of 0.502. The relative viability (HOP-62; first compound 2.53 µM) was 0.324, the relative viability (NCI-H727; first compound 0.08 µM) was 0.69 and the relative viability (NCI-H727; first compound 0.253 µM) was 0.768. For the same compound, the relative viability (NCI-H727; first compound 0.8 µM) was 0.711, the relative viability (NCI-H727; first compound 2.53 µM) was 0.735 and the relative viability (HCC-366; first compound 0.08 µM) was 0.375. The relative viability (HCC-366; first compound 0.253 µM) was 0.297, the relative viability (HCC-366; first compound 0.8 µM) was 0.338 and the relative viability (LC-2-ad; first compound 0.08 µM) was 0.657. The relative viability (LC-2-ad; first compound 0.8 µM) was 0.73, the relative viability (LC-2-ad; first compound 2.53 µM) was 0.645 and the relative viability (SK-MES-1; first compound 0.08 µM) was 0.734. For the same compound, the relative viability (SK-MES-1; first compound 0.253 µM) was 0.704, the relative viability (SK-MES-1; first compound 0.8 µM) was 0.738 and the relative viability (SK-MES-1; first compound 2.53 µM) was 0.762. The relative viability (HCC-15; first compound 0.08 µM) was 0.77, the relative viability (HCC-15; first compound 0.253 µM) was 0.653 and the relative viability (HCC-15; first compound 0.8 µM) was 0.721. For the same compound, the relative viability (HCC-15; first compound 2.53 µM) was 0.737, the relative viability (COR-L23; first compound 0.08 µM) was 0.379 and the relative viability (COR-L23; first compound 0.253 µM) was 0.314. For the same compound, the relative viability (COR-L23; first compound 0.8 µM) was 0.343, the relative viability (COR-L23; first compound 2.53 µM) was 0.261 and the relative viability (NCI-H2009; first compound 0.08 µM) was 0.746. It also gave a relative viability (NCI-H2009; first compound 0.253 µM) of 0.661, a relative viability (NCI-H2009; first compound 0.8 µM) of 0.697 and a relative viability (NCI-H2009; first compound 2.53 µM) of 0.605. For the same compound, the relative viability (NCI-H2170; first compound 0.08 µM) was 0.601, the relative viability (NCI-H2170; first compound 0.8 µM) was 0.518 and the relative viability (NCI-H2170; first compound 2.53 µM) was 0.519. For the same compound, the relative viability (PC-14; first compound 0.08 µM) was 0.242, the relative viability (PC-14; first compound 0.253 µM) was 0.235 and the relative viability (PC-14; first compound 0.8 µM) was 0.296. For the same compound, the relative viability (PC-14; first compound 2.53 µM) was 0.233.
